According to patent publication US20240252662A1, “PEPTIDE DRUG CONJUGATES SPECIFIC TO FIBRONECTIN ISOTYPES FOR CANCER THERAPY” (priority 2021, published 2024):
Entries after “also recorded” stand apart in the source; their conditions may differ.

Key:
[1] = tested on: PC3 prostate cancer, 4T1 and MDA-MB-231 breast cancer cells; experiment: cell cytotoxicity of DOX conjugates in PC3, 4T1 and MDA-MB-231 cells; assay type: cell-based; conditions: at 2.5, 5 and 10 μM; compared with doxorubicin; FIG. 11
Procedure: The reason for the lower cytotoxicity is the slow release of DOX from the ZD2-AM-DOX conjugated with an amide bond.
The cell cytotoxicity of the ZD2-PEG-HZ-DOX was tested using PC3 prostate cancer, 4T1 and MDA-MB-231 breast cancer cells at concentrations of […].

[2] = tested on: 4T1 breast tumor xenografts; conditions: i.p. 8.28 μmol/kg/week
Procedure: Anti-tumor efficacy of ZD2-HZ-DOX conjugate was investigated using the mice bearing 4T1 breast tumor xenografts. For tumor xenografts, 2×10^5 4T1 breast cancer cells suspended in Matrigel-PBS were injected into the mammary fat pads of each BALB/C mouse. Tumor volumes were monitored and measured twice a week using a Vernier caliper. When the average tumor volumes reached 100 mm^3, the BALB/C mice bearing 4T1 breast tumors were randomized into PBS control, free doxorubicin and ZD2-HZ-DOX treatment groups (n=5). Free doxorubicin and ZD2-HZ-DOX conjugates were administrated by intraperitoneal injection for 23 days at a dose of 8.28 μmol/kg/week with 3-injections per week, and 2.76 μmol/kg for each injection. Tumor size and bodyweight were monitored twice a week. The tumor sizes were measured with Vernier calipers, and tumor volumes were calculated using the equation V=(L*W2)/2.

[3] = tested on: human MDA-MB-231 triple negative breast cancer tumors; experiment: in vivo anti-tumor activity of ZD2-HZ-JAAP, MDA-MB-231 tumors; design: species or system nude mice
Procedure: The in vivo anti-tumor activity of ZD2-HZ-JAAP was evaluated in the nude mice carrying human MDA-MB-231 triple negative breast cancer tumors. The ZD2-HZ-JAAP drug conjugate was administrated to the mice with human MDA-MB-231 tumors by daily i.p. injection at a dose of 4.4 μmol/kg/day for 30 days. The tumor sizes and body weights of the mice were measured twice a week. The tumor growth was also monitored using bioluminescence imaging on the day 1, 16, and 25 after drug administration, and MRI imaging on the day 7 and 28 after the drug administration. For the ZD2-HZ-JAAP treatment group the tumor growth was inhibited with average tumor size of 80 mm^3 after 30-days of drug treatment, while for the no-treatment control group the tumors were kept growing with average tumor size of 580 mm^3 after 30-days of no treatment. […] In literature, the treatment dose of JQ1 is 50 mg/kg/day or 0.11 mmol/kg/day by i.p. injection to treat the mice with tumors. The dose of ZD2-HZ-JAAP administered by the inventors is 4.4 μmol/kg/day, which is 25-times lower than JQ1 dose. […] Since ZD2-HZ-JAAP is a target-drug that is delivered and accumulated to the tumor site, which results in low toxicity for normal tissues. Target-drug delivery results in high drug concentration at tumor site, and low concentration at normal tissues with efficient killing of tumor cells and low toxicity to normal cells.

[4] = tested on: DLD-1-DR drug resistant colon cancer, PANC-1 and BXPC3 pancreatic cancer, CAL27, SCC4 and HSC3 head and neck cancer cells, MDA-MB-231 and 4T1 breast cancer …; experiment: cell cytotoxicity of ZD2-HZ-JAAP in cancer cell panel; assay type: cell-based; conditions: after 48 hours incubation; compared with JQ1 or JAAP; FIG. 2
Procedure: FIG. 2 provides graphs showing the cell viability of different cancer cells treated with ZD2-HZ-JAAP.
The cell cytotoxicity of ZD2-HZ-JAAP was tested using DLD-1-DR drug resistant colon cancer, PANC-1 and BXPC3 pancreatic cancer, CAL27, SCC4 and HSC3 head and neck cancer cells, MDA-MB-231 and 4T1 breast cancer cells, PC3 and C4-2 prostate cancer cells.

[5] = tested on: 4T1 breast tumor xenografts; experiment: anti-tumor efficacy of ZD2-HZ-JAAP, 4T1 breast tumor xenografts; assay type: in vivo, BALB/C mice; conditions: daily i.p. 7.34 μmol/kg/day for 29 days; n=5; PBS control 645±240 mm^3
Description: (§1) Anti-tumor efficacy of ZD2-HZ-JAAP conjugate was also investigated using the mice bearing PC3 prostate or 4T1 breast tumor xenografts. For tumor xenografts, PC3 prostate or 4T1 breast cancer cells suspended in Matrigel-PBS were subcutaneously injected into the flank of nude mice or mammary fat pads of BALB/C mice, respectively. Tumor volumes were monitored and measured twice a week using a Vernier caliper. When the average tumor volumes reached 100 mm^3 for PC3 tumors, and 45 mm^3 for 4T1 tumors, the mice bearing tumor xenografts were randomized into PBS control, JQ1 and ZD2-HZ-JAAP treatment groups (n=6 for PC3 tumors or 5 for 4T1 tumors). Free JQ1 and ZD2-HZ-JAAP conjugates were administrated by daily intraperitoneal injection for 29 days at a dose of 7.34 μmol/kg/day. Tumor size and bodyweight were monitored twice a week. The tumor sizes were measured with Vernier calipers, and tumor volumes were calculated using the equation V=(L*W2)/2.

[6] = tested on: PC3 prostate tumor xenografts; conditions: for tumor volume by the end of the treatment (mean±SD): daily i.p. 7.34 μmol/kg/day for 29 days, n=6, PBS control 1223±136 mm^3
Description: as §1

Cc1ccc(C(Cl)(c2ccccc2)c2ccccc2Cl)cc1 (stereo not shown) [ZD2-AM-DOX]
cell cytotoxicity [1]: lower than that of doxorubicin

COc1cccc2c1C(=O)c1c(O)c3c(c(O)c1C2=O)C[C@@](O)(C(=O)CO)C[C@@H]3O[C@H]1C[C@H](N)[C@H](O)[C@H](C)O1 [doxorubicin]
survival ([2]; 24-day treatment period): One mouse died on day 10, and all remaining mice died on day 11 | loss of bodyweight relative to initial weight ([2]; at day 10): 25%

Cc1ccc(C(Cl)(c2ccccc2)c2ccccc2Cl)cc1 (stereo not shown) [ZD2-HZ-JAAP]
tumor growth inhibition ([3]; 4.4 μmol/kg/day, 25-times lower than literature JQ1 dose): efficiently inhibited the triple-negative breast cancer tumor growth | average tumor size ([3]; after 30 days of treatment, daily i.p. 4.4 μmol/kg/day, no-treatment control 580 mm^3): 80 mm^3 | body weight of the mice ([3]; daily i.p. 4.4 μmol/kg/day for 30 days, vs no-treatment group): kept growing; also recorded: no significant difference | cell cytotoxicity [4]: lower than that of JQ1 or JAAP | tumor volume by the end of the treatment (mean±SD) [5]: 46±30 mm^3 | tumor volume by the end of the treatment (mean±SD) [6]: 150±80 mm^3 | survival during treatment period ([6]; mice bearing PC3 or 4T1 tumors, 29 days of treatment, 7.34 μmol/kg/day i.p.): all mice were survived | bodyweight change relative to initial weight ([6]; mice bearing PC3 or 4T1 tumors, daily i.p. 7.34 μmol/kg/day, 29 days): ≤ 10%

Cc1sc2c(c1C)C(c1ccc(Cl)cc1)=N[C@@H](CC(=O)OC(C)(C)C)c1nnc(C)n1-2 [JQ1, reference compound]
tumor volume by the end of the treatment (mean±SD) [6]: 537±170 mm^3 | suppression of tumor growth ([6]; same dose as ZD2-HZ-JAAP, 7.34 μmol/kg/day i.p.): didn't efficiently suppress tumor growth
